Results: patent US9381200B2, “Nitrogen containing compounds” (WOCKHARDT LIMITED, priority 2011, dated 2016)
≈ marks a conversion by molar mass, not a printed value. Like-named read-outs stand apart in the source and are kept apart here.

Experiments:
Format in all cases: cell-based
[1] = test system: E. coli M 50; assay: Antibacterial activity (MIC), agar dilution per CLSI; conditions: Escherichia coli, read-out: MIC
Procedure, shortened: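 Susceptibility is determined by the CLSI agar dilution procedure, in which appropriately diluted overnight cultures are applied to compound-containing agar prepared as doubling dilutions. After incubation (35±2° C., ambient air, 16-20 hours), growth or its absence defines the MIC, given in mcg/ml.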

[2] = test system: E. Coli W 13351; assay: Antibacterial activity (MIC) against MDR Gram negative strains; conditions: Escherichia coli; Table 4; E. Coli W 13351, Class A ESBL, MDR; read-out: MIC
Method: (§1) The biological activity of representative compounds according to the invention against various bacterial strains was investigated. In a typical study, overnight grown bacterial cultures were diluted appropriately and inoculated on the agar media containing doubling dilutions of the test compounds. Observation for growth or no growth was performed after 16-20 hours of incubation at 35±2° C. in ambient air. The overall procedure was performed as per Clinical and Laboratory Standards Institute (CLSI) recommendations (Clinical and Laboratory Standards Institute (CLSI), Performance Standards for Antimicrobial Susceptibility Testing, 20th Informational Supplement, M 100-S20, Volume 30, No. 1, 2010).
(§2) The activities are expressed as MICs (mcg/ml).

[3] = test system: E. Coli H 484; assay: as above; conditions: Escherichia coli; Table 4; E. Coli H 484, Class C ESBL, MDR; read-out: MIC
Method: as §1, §2

[4] = test system: K penumoniae H 521; assay: as above; conditions: Table 4; K penumoniae H 521, KPC ESBL, MDR; read-out: MIC
Method: as §1, §2

[5] = test system: E. Coli M 44; assay: as above; conditions: Escherichia coli; Table 5; E. Coli M 44, Class B ESBL, MDR; read-out: MIC
Method: as §1, §2

[6] = test system: P. aeruginosa Ps 21; assay: as above; conditions: Pseudomonas aeruginosa, PS21; Table 5; P. aeruginosa Ps 21; read-out: MIC
Method: as §1, §2

[7] = test system: K penumoniae H 523; assay: as above; conditions: Table 4; K penumoniae H 523, KPC ESBL, MDR; read-out: MIC
Method: as §1, §2

[8] = test system: P. aeruginosa ATCC 27853; assay: as above; conditions: Pseudomonas aeruginosa, ATCC27853; Table 5; P. aeruginosa ATCC 27853; read-out: MIC
Method: as §1, §2

[9] = test system: K penumoniae H 525; assay: as above; conditions: Table 4; K penumoniae H 525, KPC ESBL, MDR; read-out: MIC
Method: as §1, §2

[10] = test system: K. penumoniae S 48; assay: as above; conditions: Table 5; K. penumoniae S 48, Class B ESBL, MDR; read-out: MIC
Method: as §1, §2

[11] = test system: E. Coli B 89; assay: as above; conditions: Escherichia coli; Table 4; E. Coli B 89, Class C ESBL, MDR; read-out: MIC
Method: as §1, §2

[12] = test system: E. Coli M 3; assay: as above; conditions: Escherichia coli; Table 5; E. Coli M 3, Class B ESBL, MDR; read-out: MIC
Method: as §1, §2

[13] = test system: E. Coli W 13353; assay: as above; conditions: Escherichia coli; Table 4; E. Coli W 13353, Class A ESBL, MDR; read-out: MIC
Method: as §1, §2

[14] = test system: P. aeruginosa Ps 32; assay: as above; conditions: Pseudomonas aeruginosa, PS32; Table 5; P. aeruginosa Ps 32; read-out: MIC
Method: as §1, §2

[15] = test system: E. Coli W 13352; assay: as above; conditions: Escherichia coli; Table 4; E. Coli W 13352, Class A ESBL, MDR; read-out: MIC
Method: as §1, §2

[16] = test system: P. vulgaris S-137B; assay: Antibacterial activity of Ceftazidime in presence of compounds of the invention (MIC); conditions: Proteus vulgaris, S137B; Table 6; P. vulgaris S-137B (ESBL type: Class C); Ceftazidime alone or with compound at fixed 4 mcg/ml as named in the composition
Method: as §1
(§3) The antibacterial activity of representative compounds according to the invention was also investigated in combination with at least one antibacterial agent using the above study protocol and the results are given Table 6.

[17] = test system: K. pneumoniae ATCC 700603; assay: as above; conditions: Klebsiella pneumoniae, ATCC700603; Table 6; K. pneumoniae ATCC 700603 (ESBL type: Class A); Ceftazidime alone or with compound at fixed 4 mcg/ml as named in the composition
Method: as §1, §3

[18] = test system: E. coli NCTC 13351; assay: Antibacterial activity (MIC), agar dilution per CLSI; conditions: Escherichia coli, NCTC13351, Table 3, E. coli NCTC 13351 expressing ESBL, 16-20 hours, 35±2° C., read-out: MIC
Procedure, shortened: (§4)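 Agar dilution MIC per CLSI: overnight cultures diluted and inoculated onto agar containing doubling dilutions of compound. Growth/no growth read after 16-20 h at 35±2° C in ambient air. Strains express ESBL.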

[19] = test system: E. coli 7 MP; assay: as above; conditions: Escherichia coli, Table 3, E. coli 7 MP expressing ESBL, read-out: MIC
Procedure, shortened: as §4

[20] = test system: A. baumannii 1460648; assay: Antibacterial activity of sulbactam / Cefepime combinations with a compound of the invention (MIC)
Method: as §1

[21] = test system: A. baumannii G-165; assay: as above; conditions: Acinetobacter baumannii
Method: as §1

[22] = test system: A. baumannii S-334; assay: as above; conditions: Acinetobacter baumannii
Method: as §1

[23] = test system: A. baumannii J-143; assay: as above; conditions: Acinetobacter baumannii
Method: as §1

[24] = M50, Table 4, E. Coli M 50, Class C ESBL, MDR
[25] = M50, Table 3, E. coli M 50 expressing ESBL, agar dilution
[26] = Acinetobacter baumannii, footnotes of Tables 7 and 8, A. baumannii 1460648, substance used alone, read-out: Standalone MIC
[27] = G165, footnotes of Tables 7 and 8, A. baumannii G-165, substance used alone, read-out: Standalone MIC
[28] = S334, footnotes of Tables 7 and 8, A. baumannii S-334, substance used alone, read-out: Standalone MIC
[29] = J143, footnotes of Tables 7 and 8, A. baumannii J-143, substance used alone, read-out: Standalone MIC

Row | MIC [1, 24] | MIC [2] | MIC [3] | MIC [4] | MIC [5] | MIC [6] | MIC [7] | MIC [8] | MIC [9] | MIC [10] | MIC [11] | MIC [12] | MIC [13] | MIC [14] | MIC [15] | MIC [18] | MIC [19] | MIC [1, 25] | MIC [20, 26] | MIC [21, 27] | SMILES | other results
1 | > 32 µg/mL | 32 µg/mL (≈ 58.5 µM) | > 32 µg/mL | > 32 µg/mL | > 32 µg/mL | > 32 µg/mL | > 32 µg/mL | 1 µg/mL (≈ 1.83 µM) | > 32 µg/mL | > 32 µg/mL | > 32 µg/mL | > 32 µg/mL | 32 µg/mL (≈ 58.5 µM) | > 32 µg/mL | > 32 µg/mL |  |  |  |  |  | CC(C)(O/N=C(\C(=O)N[C@@H]1C(=O)N2C(C(=O)[O-])=C(C[n+]3ccccc3)CS[C@H]12)c1csc(N)n1)C(=O)O [Ceftazidime, reference compound] | MIC [16]: > 32 µg/mL; MIC [17]: > 32 µg/mL
2 | 0.25 µg/mL (≈ 0.639 µM) | 0.25 µg/mL (≈ 0.639 µM) | 0.12 µg/mL (≈ 0.307 µM) | 0.5 µg/mL (≈ 1.28 µM) | 0.5 µg/mL (≈ 1.28 µM) | 8 µg/mL (≈ 20.4 µM) | 1 µg/mL (≈ 2.55 µM) | 8 µg/mL (≈ 20.4 µM) | 0.5 µg/mL (≈ 1.28 µM) | 0.5 µg/mL (≈ 1.28 µM) | 0.25 µg/mL (≈ 0.639 µM) | 2 µg/mL (≈ 5.11 µM) | 0.12 µg/mL (≈ 0.307 µM) | 8 µg/mL (≈ 20.4 µM) | 0.25 µg/mL (≈ 0.639 µM) | 0.25 µg/mL (≈ 0.639 µM) | 1 µg/mL (≈ 2.55 µM) | 0.25 µg/mL (≈ 0.639 µM) | > 32 µg/mL | > 32 µg/mL | O=C(NNC(=O)[C@@H]1CC[C@@H]2CN1C(=O)N2OS(=O)(=O)O)[C@@H]1CCCNC1 [Example 2, trans-sulfuric acid mono-[2-(N′—[(R)-piperidin-3-carbonyl]-hydrazinocarbonyl)-7-oxo-1,6-diaza-bicyclo[3.2.1]oct-6-yl]ester] | MIC [22, 28]: > 32 µg/mL; MIC [23, 29]: > 32 µg/mL
3 | 0.5 µg/mL (≈ 1.32 µM) | 0.5 µg/mL (≈ 1.32 µM) | 0.5 µg/mL (≈ 1.32 µM) | 0.5 µg/mL (≈ 1.32 µM) | 0.12 µg/mL (≈ 0.318 µM) | 4 µg/mL (≈ 10.6 µM) | 0.5 µg/mL (≈ 1.32 µM) | 2 µg/mL (≈ 5.3 µM) | 0.5 µg/mL (≈ 1.32 µM) | 0.5 µg/mL (≈ 1.32 µM) | 0.25 µg/mL (≈ 0.662 µM) | 0.5 µg/mL (≈ 1.32 µM) | 0.25 µg/mL (≈ 0.662 µM) | 4 µg/mL (≈ 10.6 µM) | 0.5 µg/mL (≈ 1.32 µM) | 0.25 µg/mL (≈ 0.662 µM) | 1 µg/mL (≈ 2.65 µM) | 0.25 µg/mL (≈ 0.662 µM) | > 32 µg/mL | > 32 µg/mL | O=C(NNC(=O)[C@@H]1CC[C@@H]2CN1C(=O)N2OS(=O)(=O)O)[C@@H]1CCNC1 [Example 3, trans-sulfuric acid mono-[2-(N′—[(R)-pyrrolidin-3-carbonyl]-hydrazinocarbonyl)-7-oxo-1,6-diaza-bicyclo[3.2.1]oct-6-yl]ester] | MIC [22, 28]: > 32 µg/mL; MIC [23, 29]: > 32 µg/mL
4 |  |  |  |  |  |  |  |  |  |  |  |  |  |  |  |  |  |  |  |  | CC1(C)[C@H](C(=O)O)N2C(=O)C[C@H]2S1(=O)=O [Sulbactam, sulbactam] | MIC ([20]; Acinetobacter baumannii, 1460648, read-out: MIC of sulbactam): 32 µg/mL; MIC ([20]; Acinetobacter baumannii, 1460648, read-out: Standalone MIC): 32 µg/mL; MIC ([21]; G165, read-out: MIC of sulbactam): 32 µg/mL; MIC ([21]; G165, read-out: Standalone MIC): 32 µg/mL; MIC ([22]; S334, read-out: MIC of sulbactam): 32 µg/mL; MIC ([22]; S334, read-out: Standalone MIC): 32 µg/mL; MIC ([23]; J143, read-out: MIC of sulbactam): 32 µg/mL; MIC ([23]; J143, read-out: Standalone MIC): 32 µg/mL
